biological target: T1, gamma secretase (Homo sapiens, UniProt P49768); test: GSM cell-based assay: Aβ 42 inhibition or reduction in HEK 293 cells over-expressing APP (sandwich ELISA); conditions: approximate IC50; HEK293 cells stably expressing full length APP, 24 hours incubation, 10-point dose response starting at 10 μM
T1 construct: HEK293 cells stably expressing full length Amyloid Precursor Protein (APP); endogenous in cells; host or cells: HEK 293 cells stably expressing full length APP
Text: GSM cell-based assays were designed to measure the modulation of Aβ 42 from HEK 293 cells over-expressing APP.
Three simultaneous cell-based assays, namely Aβ 42 inhibition or reduction, Aβ 40 inhibition or reduction and a measurement of cell viability of the cells from which the Aβ 42/40 readout was obtained, together gave an interpretation of gamma secretase modulation (GSM). The assays measure Aβ 42 and Ab 40 from conditioned medium of test compound treated HEK 293 cells.
HEK293 cells stably expressing full length Amyloid Precursor Protein (APP) were plated at a density of 100K cells/well in 96 well plates (Costar). The cells were cultivated for 6 hours at 37° C. and 5% CO2 in DMEM supplemented with 10% FBS. The test compounds were then added to cells in 10-point dose response concentrations with the starting concentration being 10 μM. The compounds were diluted from stock solutions in DMSO and the final DMSO concentration of the test compounds on cells was 0.1%. After 24 hours of incubation with the test compounds the supernatant conditioned media was collected and the Aβ 42, Aβ 40 levels were determined using a sandwich ELISA. A cell viability test (CellTiter-Blue Cell Viability assay, Promega) on the cells from which the conditioned medium was harvested for Aβ 42 or Aβ 40 readouts gave an indication of cell survivability as a possible reason for false positive Aβ 42 or 40 reduction or inhibition readout. The IC50 of the compound (for either Aβ 42 or Aβ 40) was calculated from the percent of control or percent inhibition of Aβ 42 or Aβ 40 as a function of the concentration of the test compound.
The sandwich ELISA to detect Aβ 42 or Aβ 40 was performed in 96 well microtiter plates, which were pre-treated with goat anti-rabbit IgG (Pierce). The capture and detecting antibody pair that were used to detect Aβ 42 and Aβ 40 from cell supernatants were rabbit monoclonal Antibody 42 (RabMAb 42) and affinity purified polyclonal Antibody 40 pAB40 (Biosource) as capture antibodies and biotinylated 6E10 (Signet Labs Inc.) as detection antibody. The optimal concentration for RabMAb 42 was 1 μg/ml in Superblock/TBS (Pierce) that was supplemented with 0.05% Tween 20 (Sigma). The optimal concentration for the pAb40 antibody was 3 μg/ml in Superblock/TBS (Pierce) that was supplemented with 0.05% Tween 20 (Sigma). Optimal concentration for the detection antibody 6E10-biotinylated was 0.5 μg/ml in Superblock/TBS (Pierce) that had been supplemented with 2% normal goat serum and 2% normal mouse serum.
Cellular supernatants were incubated with the capture antibody for 16-20 hours at 4° C., followed by 3 wash steps in TBS-tween (0.05%). The detecting antibody incubation was for 3 hours at 4° C., again followed by the wash steps as described previously. The final readout of the ELISA is Time-Resolved Fluorescence (counts per minute) using Delfia reagents Streptavidin-Europium and Enhancement solutions (Perkin Elmer) and the EnVision Multilabel plate reader (Perkin Elmer).

Compared with `Cc1cc(-c2ccc(NC(=O)C3(c4ccccc4F)CC3)cc2)ccn1` [Cpd 288], `Cc1cc(-c2ccc(NC(=O)C3(c4ccc(Cl)cc4Cl)CC3)cc2)ccn1` [Cpd 332] is 1.5-fold lower in IC50: 1770 nM for the first, 1170 nM for the second. The second is the more potent here.

`Cc1cc(-c2ccc(NC(=O)[C@@H](C)c3cc(C(F)(F)F)cc(C(F)(F)F)c3)cc2)ccn1` [Cpd 290, (2S)-2-(3,5-bis(trifluoromethyl)phenyl)-N-(4-(2-methyl-4-pyridinyl)phenyl)-propanamide] and `Cc1cc(-c2ccc(NC(=O)C(C)(C)c3cc(C(F)(F)F)cc(C(F)(F)F)c3)cc2)ccn1` [Cpd 336] cannot be ordered by IC50: > 10000 nM for the first, > 10000 nM for the second.

Going from `Cc1cc(-c2ccc(NC(=O)c3cn4cc(Cl)ccc4n3)cc2)ccn1` [Cpd 300] to `Cc1cc(-c2ccc(NC(=O)c3cn4cc(Br)ccc4n3)cc2)ccn1` [Cpd 315], the IC50 falls from > 10000 nM to 2160 nM. The second is the more potent here.

Going from `Cc1cc(-c2ccc(NC(=O)c3cc4ccccc4n3C)cc2)ccn1` [Cpd 305] to `Cc1cc(-c2ccc(NC(=O)C(C)n3ccc4ccccc43)cc2)ccn1` (stereo not drawn) [Cpd 414, 2-(1H-indol-1-yl)-N-(4-(2-methyl-4-pyridinyl)phenyl)propanamide], the IC50 falls from 5540 nM to 1020 nM (5.4-fold). The second is the more potent here.

Going from `Cc1cc(-c2ccc(NC(=O)C3CC(=O)N(c4ccc(Cl)cc4)C3)cc2)ccn1` (stereo not drawn) [Cpd 308] to `Cc1cc(-c2ccc(NC(=O)C3(c4ccc(Cl)cc4)CCC3)cc2)ccn1` [Cpd 310], the IC50 falls from > 10000 nM to 573 nM.

First: Cc1cc(-c2ccc(NC(=O)C3CCN(Cc4ccccc4)CC3)cc2)ccn1 [Cpd 312]
Second: Cc1cc(-c2ccc(NC(=O)C3CCCc4ccccc43)cc2)ccn1 (stereo not drawn) [Cpd 322]
The IC50 of the first is higher: > 10000 nM for the first, 2690 nM for the second.

Going from `Cc1cc(-c2ccc(NC(=O)c3cc4ccc(F)cc4s3)cc2)ccn1` [Cpd 314] to `Cc1cc(-c2ccc(NC(=O)Cc3ccc(F)c(C(F)(F)F)c3)cc2)ccn1` [Cpd 351, 2-(4-fluoro-3-(trifluoromethyl)phenyl)-N-(4-(2-methyl-4-pyridinyl)phenyl)acetamide], the IC50 falls from > 10000 nM to 2390 nM.

First: Cc1cc(-c2ccc(NC(=O)Cc3cccc(C#N)c3)cc2)ccn1 [Cpd 321, 2-(3-cyanophenyl)-N-(4-(2-methyl-4-pyridinyl)phenyl)acetamide]
Second: Cc1cccc(C(C(=O)Nc2ccc(-c3ccnc(C)c3)cc2)C(C)C)c1 (stereo not drawn) [Cpd 338, 3-methyl-2-(3-methylphenyl)-N-(4-(2-methyl-4-pyridinyl)phenyl)butanamide]
The IC50 of the first is higher: > 10000 nM for the first, 1350 nM for the second. The second is the more potent here.

First: CC[C@@H](C(=O)Nc1ccc(-c2ccnc(C)c2)cc1)c1ccccc1 [Cpd 344, (2R)-N-(4-(2-methyl-4-pyridinyl)phenyl)-2-phenylbutanamide]
Second: CC[C@H](C(=O)Nc1ccc(-c2ccnc(C)c2)cc1)c1ccccc1 [Cpd 345, (2S)-N-(4-(2-methyl-4-pyridinyl)phenyl)-2-phenylbutanamide]
The IC50 of the first is higher: > 10000 nM for the first, 1870 nM for the second.

Compared with `CCCC(C(=O)Nc1ccc(-c2ccnc(C)c2)cc1)c1ccccc1` (stereo not drawn) [Cpd 368, N-(4-(2-methyl-4-pyridinyl)phenyl)-2-phenylpentanamide], `Cc1cc(-c2ccc(NC(=O)C(C)c3ccc(N)cc3)cc2)ccn1` (stereo not drawn) [Cpd 419, 2-(4-aminophenyl)-N-(4-(2-methyl-4-pyridinyl)phenyl)propanamide] is higher in IC50: 2650 nM for the first, > 10000 nM for the second.

`Cc1cc(-c2ccc(NC(=O)c3cccc(-c4ccccc4)c3)cc2)ccn1` [Cpd 386] and `Cc1cc(-c2ccc(NC(=O)C(C)c3cccc(-c4ccc(S(C)(=O)=O)cc4)c3)cc2)ccn1` (stereo not drawn) [Cpd 442, N-(4-(2-methyl-4-pyridinyl)phenyl)-2-(4′-(methylsulfonyl)-3-biphenylyl)propanamide] are within 1.5-fold of each other in IC50: 874 nM for the first, 628 nM for the second.

Compared with `Cc1cc(-c2ccc(NC(=O)C(C)c3cccc(C4=CCNCC4)c3)cc2)ccn1` (stereo not drawn) [Cpd 425, N-(4-(2-methyl-4-pyridinyl)phenyl)-2-(3-(1,2,3,6-tetrahydro-4-pyridinyl)phenyl)-propanamide], `Cc1cc(-c2ccc(NC(=O)C(C)c3cc(N4CCOCC4)cc(C(F)(F)F)c3)cc2)ccn1` (stereo not drawn) [Cpd 441, N-(4-(2-methyl-4-pyridinyl)phenyl)-2-(3-(4-morpholinyl)-5-(trifluoromethyl)phenyl)-propanamide] is lower in IC50: > 10000 nM for the first, 1840 nM for the second. The second is the more potent here.

Reference: patent publication US20110166132A1, “Gamma Secretase Modulators” (Amgen Inc., priority 2007, published 2011)
